The test system of test [1] is head twitch response in mice. The experiment in a line: Head twitch response (HTR). It is filed as in vivo. Particulars: mice, i.p.; for HTR Emax (95% CI): 10-min period. How it is done: HTR studies were adapted from. Mice (N = 8–10 per group) were injected intraperitoneally (i.p.) with saline or the appropriate tryptamine dose (0.3, 1, 3, 10, or 30 mg/kg) and placed into the observation arena (25 × 25 × 40 cm). A camera mounted above the observation cage recorded the mice for the next 10 min after the injection. Another batch of animals (N = 8–10) received subcutaneous injections of either saline or the respective antagonist (WAY100635 1 mg/kg for 5-HT1AR or ketanserin 1 mg/kg for 5-HT2AR). After a 10-min interval, the animals were i.p. injected with the corresponding tryptamine (10 mg/kg) and placed in the observation arena. Animal behavior was recorded for the next 10 min after the last injection, as mentioned before. Video recordings were examined by two blind observers blinded to the treatments, who assessed the number of head twitches, defined as a rapid rotational jerk of the head which is not contiguous with any grooming behavior [39].
Data were expressed as means±standard deviation (SD). Competition, release and functional assays, and substrate-induced current curves were plotted and fitted by non-linear regression to obtain the IC50, EC50, and Emax values. For behavioral studies, data were fitted by non-linear regression and pED50 and Emax values (with the corresponding 95% CI) were estimated by means of a software (GraphPad Prism 10) that further extrapolates the data. The Cheng-Prusoff equation was used to calculate Ki (affinity): Ki = […]/(1 + [radioligand-concentration/Kd]). HTR curves were fitted using a Gaussian equation as described. Data from batch release assays were statistically analyzed with a mixed-effects model, employing Šidák’s correction for multiple comparisons. Total release at each concentration and the behavioral experiments with the corresponding antagonists were statistically analyzed using one-way ANOVA, followed by Tukey’s post-hoc test. Molecular volume (van der Waals) was calculated using a grid approximation (spacing 0.75 Å). logP was calculated using Molinspiration Cheminformatics software. For in vivo studies, one-way ANOVA with Dunnet’s post-hoc test was used to compare all conditions to saline in dose-response experiments when data were normally distributed. Otherwise, a non-parametric test (Kruskall-Wallis with Dunn’s post-hoc test) was used. Alpha was set at 0.05. Outliers were excluded following ROUT’s method (Q = 0.1%). All statistical analyses and Pearson correlations were conducted using GraphPad Prism 10 software (GraphPad software, San Diego, CA, USA).

For the next test, the target named is T1, SERT (Homo sapiens, UniProt P31645).
T1 construct: YFP (yellow-fluorescent protein); expressed in transfected cells
T1 sequence (P31645 whole entry): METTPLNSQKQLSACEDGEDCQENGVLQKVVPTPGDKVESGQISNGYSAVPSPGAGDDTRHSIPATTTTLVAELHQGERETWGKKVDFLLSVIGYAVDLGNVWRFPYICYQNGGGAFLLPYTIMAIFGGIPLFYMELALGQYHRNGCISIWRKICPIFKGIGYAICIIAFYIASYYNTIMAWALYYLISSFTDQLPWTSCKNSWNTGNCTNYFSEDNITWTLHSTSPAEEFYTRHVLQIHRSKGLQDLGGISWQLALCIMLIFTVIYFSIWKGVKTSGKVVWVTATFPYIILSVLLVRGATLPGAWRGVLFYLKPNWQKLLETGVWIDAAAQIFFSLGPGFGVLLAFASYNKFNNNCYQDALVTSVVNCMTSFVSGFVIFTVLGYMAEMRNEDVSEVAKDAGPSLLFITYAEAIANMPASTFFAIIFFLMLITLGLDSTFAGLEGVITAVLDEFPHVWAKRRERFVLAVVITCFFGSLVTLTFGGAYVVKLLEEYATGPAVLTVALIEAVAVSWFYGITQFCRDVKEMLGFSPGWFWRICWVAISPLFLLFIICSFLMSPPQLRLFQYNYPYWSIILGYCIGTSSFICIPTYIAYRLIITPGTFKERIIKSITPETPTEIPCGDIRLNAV
The experiment in a line: [3H]5-HT uptake inhibition in HEK293 cells expressing hSERT. The format is cell-based. How it is done:
See the Supplementary Material for cell culture procedures. The medium was removed from each well and replaced with 200 μL/well of Krebs-HEPES-Buffer (KHB). The cells were pre-incubated for 5 min with different concentrations of drug in KHB at 50 μL/well. […] The incubation solution was aspirated and the cells were washed with ice-cold KHB and lysed with 1% sodium dodecyl sulfate (SDS). The lysate was collected into vials and scintillation liquid was added. The radioactivity was quantified using a beta-scintillation counter (Perkin Elmer, Waltham, MA, USA). Non-specific uptake was determined in the presence of 30 μM paroxetine. Data were expressed as percentage of control uptake (absence of tryptamine).
The generation and maintenance of HEK293 cells stably expressing the yellow-fluorescent protein (YFP)-tagged version of the human isoform of SERT (hSERT) (Perkin Elmer, Waltham, MA, USA) was carried out as described previously. For uptake inhibition and batch release assays, cells were seeded onto previously poly-D-lysine (PDL)-coated 96-well plates at a density of 0.036 million cells per well [5]. For superfusion release assays, cells were seeded onto a previously coated with PDL 6 channel µ-slide at a density of 0.08 million cells per channel. Prior to patching, cells were grown in DMEM containing 10% FBS, Zeocin (150 µg/mL) and Blasticidin (6 µg/mL) for positive selection of transporter-expressing clones. The cells were seeded at a low density on PDL-coated 35 mm plates 24-48 hr prior to patching. For membrane preparation, HEK293 cells expressing hSERT transporters were harvested from 80–90% confluent dishes as described elsewhere. Protein concentration was determined using the Bio-RadProtein Reagent (Bio Rad Laboratories, Hercules, CA, USA). Membrane preparations were stored at −80°C until use. Generation and maintenance of CHO-K1 cells expressing the human isoform of 5-HT2AR (h5-HT2AR) was carried out as described in the manufacturer’s protocol (Perkin Elmer, Waltham, MA, USA). Routine DAPI-Staining assays tested negative in mycoplasma contamination.

For a further test, the target named is T2, h5-HT1AR (Homo sapiens, UniProt P08908).
T2 construct: purchased Perkin Elmer, Inc. (Waltham, MA, USA)
T2 sequence (P08908 1-422): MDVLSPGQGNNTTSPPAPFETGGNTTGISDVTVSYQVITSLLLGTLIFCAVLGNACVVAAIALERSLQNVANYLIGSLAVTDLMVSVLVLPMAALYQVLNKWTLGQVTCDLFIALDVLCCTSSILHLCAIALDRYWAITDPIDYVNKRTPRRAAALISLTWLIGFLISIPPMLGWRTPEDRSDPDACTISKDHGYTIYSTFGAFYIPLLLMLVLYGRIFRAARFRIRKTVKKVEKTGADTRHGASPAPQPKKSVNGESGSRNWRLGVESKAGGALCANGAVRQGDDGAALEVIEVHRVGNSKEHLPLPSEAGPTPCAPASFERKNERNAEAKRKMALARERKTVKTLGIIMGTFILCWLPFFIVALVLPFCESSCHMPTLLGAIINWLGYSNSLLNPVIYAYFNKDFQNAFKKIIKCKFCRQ
The experiment in a line: Radioligand binding, [3H]8-OH-DPAT displacement. The protocol: Binding assays were performed as described previously. Briefly, membrane preparations expressing h5-HT1AR, h5-HT2AR or hSERT (see Supplementary Material) were incubated with radiolabeled selective ligands 0.4 nM [^3H]8-OH-DPAT, 1 nM [^3H]ketanserin or 3 nM [^3H]imipramine, respectively. The drugs were diluted in the corresponding binding buffer and tested at increasing concentrations in duplicate. Binding reactions were performed in tubes containing the drug dilutions; 25 μl of the corresponding radioligand; and the membranes (10 μg and 5 μg/500 μL for 5-HT1AR and 5-HT2AR, respectively, and 15 μg/100 μL for hSERT), all diluted in binding buffer. […] Incubation was performed for 1 h at 27 °C for 5-HT1A/2AR and 22 °C for hSERT, according to the manufacturer’s protocol (Perkin Elmer, Inc., Waltham, MA, USA) and previous studies - saturation and kinetic experiments, respectively. The binding reactions were stopped by rapid filtration through GF/B glass microfiber filters pre-soaked with 0.5% polyethyleneimine and washing with ice-cold wash buffer. The filters were placed into vials and scintillation cocktail was added. The trapped radioactivity was quantified. Specific binding was defined as the difference between total binding (binding buffer alone) and non-specific binding. Experiments were conducted per duplicate for at least three independent experiments.

Setting [2] is: read-out: 5-HT uptake inhibition IC50 ± SD, HEK293 hSERT, N ≥ 3.
The mark [3] stands for this setting: 0.4 nM [3H]8-OH-DPAT, N ≥ 3, read-out: 5-HT1AR Ki ± SD.

Like-named read-outs stand apart in the source and are kept apart here.

What is called IC50 is the concentration at which inhibition is half-maximal. Broadly, the Ki is the dissociation constant of the complex between target and ligand, obtained from inhibition or displacement. For the compound `CCN(CCc1c[nH]c2ccc(OC)cc12)C(C)C` [5-MeO-EIPT], in test [1], the “HTR Emax (95% CI)” value was 9.27 (7.10–11.44) HTR events. Moreover, the “HTR ED50” value in test [1] (10 min after injection) is given as 10.6 mg/kg. Besides, the IC50 on SERT (setting [2]) turned out to be 22.2 µM. The Ki on h5-HT1AR (setting [3]) was found to be 18.4 ± 8.4 nM.
For `COc1ccc2[nH]cc(CCN(C)C(C)C)c2c1` [5-MeO-MIPT], the “HTR Emax (95% CI)” value in test [1] was 14.19 (11.7–16.68) HTR events. Also, the “HTR ED50” value in test [1] (10 min after injection) amounted to 0.791 mg/kg. The IC50 at SERT (setting [2]) worked out at 29.8 µM. In addition, on h5-HT1AR (setting [3]), the Ki turned out to be 24.8 ± 7.6 nM.
The like results for `CCN(C)CCc1c[nH]c2ccc(OC)cc12` [5-MeO-MET] were, in that order, 28.4 (23.5–33.2) HTR events, 2.72 mg/kg, 30.1 µM and 3.11 ± 0.51 nM.
Regarding `COc1ccc2[nH]cc(CCN3CCCC3)c2c1` [5-MeO-pyr-T], the “HTR Emax (95% CI)” value in test [1] was 10.0 (6.9–13.1) HTR events. The “HTR ED50” value in test [1] (10 min after injection) came to 7.29 mg/kg. Besides, at SERT (setting [2]), the IC50 amounted to 2.77 ± 1.43 µM. The Ki on h5-HT1AR (setting [3]) came out at 0.577 ± 0.195 nM.
What is called ED50 is the dose that gives a 50% effect, or the effect in half of the subjects. Turning to `COc1ccc2[nH]cc(CCN(C(C)C)C(C)C)c2c1` [5-MeO-DIPT, 5-methoxy-N,N-diisopropyltryptamine], the ED50 in test [1] (Mus musculus, ip, 10 min, 10 min after injection) is 0.477 mg/kg. Also, the “HTR Emax (95% CI)” value in test [1] is 10.5 (8.5–12.5) HTR events. Further, inhibition on SERT was half-maximal at 24.2 µM (IC50). The Ki on h5-HT1AR was 15.8 ± 1.3 nM.
Regarding `C=CCN(CC=C)CCc1c[nH]c2ccc(OC)cc12` [5-MeO-DALT], the “HTR Emax (95% CI)” value in test [1] is 10.4 (8.5–12.4) HTR events. Moreover, the “HTR ED50” value in test [1] (10 min after injection) is 4.16 mg/kg. Further, the IC50 at SERT (setting [2]) turned out to be 22.3 µM. Further, the inhibition constant Ki on h5-HT1AR (setting [3]) stood at 3.26 ± 0.39 nM.
Take `CCN(CC)CCc1c[nH]c2ccc(OC)cc12` [5-MeO-DET]: the “HTR Emax (95% CI)” value in test [1] is on record as 9.73 (7.61–11.85) HTR events. In addition, the “HTR ED50” value in test [1] (10 min after injection) is given as 2.32 mg/kg. The half-inhibitory concentration (IC50) on SERT (setting [2]) stood at 60 µM. Further, at h5-HT1AR (setting [3]), the inhibition constant Ki amounted to 4.93 ± 0.62 nM.

For the origin of these results see article PMC11412900 (Molecular Psychiatry, 2024).
